Measurements as given in BindingDB's records for doi:10.1016/S0960-894X(01)80395-4 (1994).

Target: Arachidonate 5-lipoxygenase (Cavia porcellus)
Test: Inhibitory activity against 5-lipoxygenase in guinea pig leukocytes was determined

Row | IC50 | SMILES
1 | 180 nM | Cc1ccnc(N2CCN(CCC3Cn4c(-c5cc(C)c(O)c(C)c5)c(C)c5cc(O)cc(c54)O3)CC2)c1 (configuration not stated) [5-(4-Hydroxy-3,5-dimethyl-phenyl)-6-methyl-2-{2-[4-(4-methyl-pyridin-2-yl)-piperazin-1-yl]-ethyl}-2,3-dihydro-[1,4]oxazino[2,3,4-hi]indol-8-ol]
2 | 240 nM | COc1ccc2[nH]c(-c3cc(C)c(O)c(C)c3)c(C)c2c1 [TZI-41127]
